Results: US20130252930A1 (BIOMARIN PHARMACEUTICAL INC., priority 2010, published 2013)
Where two headings read alike, the source gives them in different places.

Columns and labels:
[1] = target: T1, CYP17 (human testicular microsome) (Homo sapiens, UniProt P05093); test: CYP17 enzymatic assay (IC50) (Biological Example 4); format: biochemical; details: human testicular microsome
T1 construct: using microsomal fraction from human testis (Celsis Cat #S00110) as the enzyme source; tissue Celsis S00110; host or cells: human testis microsomal fraction
T1 sequence (P05093 1-508): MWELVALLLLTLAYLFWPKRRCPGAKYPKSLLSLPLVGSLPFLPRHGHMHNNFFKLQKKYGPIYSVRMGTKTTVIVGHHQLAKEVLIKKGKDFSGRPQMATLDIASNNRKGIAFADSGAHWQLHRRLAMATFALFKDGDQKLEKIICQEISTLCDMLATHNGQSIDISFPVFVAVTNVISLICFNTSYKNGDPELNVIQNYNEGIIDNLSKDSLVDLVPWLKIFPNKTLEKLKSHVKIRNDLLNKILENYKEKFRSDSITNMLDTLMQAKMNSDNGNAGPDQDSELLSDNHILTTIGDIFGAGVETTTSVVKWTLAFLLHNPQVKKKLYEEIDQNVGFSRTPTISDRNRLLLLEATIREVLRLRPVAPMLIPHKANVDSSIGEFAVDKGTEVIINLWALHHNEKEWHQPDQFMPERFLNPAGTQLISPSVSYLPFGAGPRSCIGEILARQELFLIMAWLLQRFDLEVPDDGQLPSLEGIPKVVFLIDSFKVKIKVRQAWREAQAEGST

[2] = target: T1, CYP17 (human testicular microsome); test: CYP17 enzymatic assay (% inhibition at 10 nM), version 1 (Biological Example 5); format: biochemical; details: 10 nM compound, DHEA by ELISA, read-out: Biological Example No. 5: CYP17 percent inhibition at 10 nM (version 1)
[3] = target: T2, Cyp21 enzyme (Human HEK 293-Cyp21 stable transfected cells) (Homo sapiens, UniProt P08686); test: CYP21-HEK293 enzymatic assay (% inhibition at 100 nM) (Biological Example 10); format: cell-based; details: HEK 293-Cyp21 cells
T2 construct: expressed in transfected cells
T2 sequence (P08686 1-495): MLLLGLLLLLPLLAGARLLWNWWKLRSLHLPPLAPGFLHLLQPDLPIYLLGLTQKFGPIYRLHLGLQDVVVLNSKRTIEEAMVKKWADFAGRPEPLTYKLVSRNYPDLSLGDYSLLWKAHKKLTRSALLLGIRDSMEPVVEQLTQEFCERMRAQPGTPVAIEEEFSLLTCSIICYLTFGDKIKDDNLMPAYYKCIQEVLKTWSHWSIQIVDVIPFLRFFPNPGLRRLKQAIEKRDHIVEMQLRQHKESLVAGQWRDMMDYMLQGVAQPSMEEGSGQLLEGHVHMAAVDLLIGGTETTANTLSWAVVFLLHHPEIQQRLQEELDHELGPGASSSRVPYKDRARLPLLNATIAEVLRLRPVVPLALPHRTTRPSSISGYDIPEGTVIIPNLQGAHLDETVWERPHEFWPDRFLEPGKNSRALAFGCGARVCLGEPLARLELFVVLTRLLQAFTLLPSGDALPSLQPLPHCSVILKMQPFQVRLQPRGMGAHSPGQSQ
Procedure: Proceeding using methods similar to those described in Biological Example 11, the percent inhibition at 100 nM was measured.
This assay was used to determine compound activity against Cyp21 enzyme. Human HEK 293-Cyp21 stable transfected cells (maintained in complete growth media DMEM+10% FBS, supplemented with 125 ug/mL Hygromycin) were seeded in a 96-well plate at 20,000 cells/well/100 uL in DMEM plus 10% FBS and allowed to attach overnight. The next day, 20 μL medium was carefully removed and 10 μL of 10× pre-made compounds in DMEM+10% FBS+10% methanol was transferred to the wells to final concentrations of 1000, 100, 10, 1, or 0.1 nM. Mock treatment was 1% methanol in growth media and the cells were left at 37° C., 5% CO2 for 5 hr. After the incubation, 10 μL of substrate progesterone (Sigma) was added to the wells to make a final concentration of 10 μM. The cells were incubated the cells at 37° C. for 20 hr. At the end of incubation, 90 μL of conditioned media was removed to measure DOC level by ELISA.
Preparation of the DOC ELISA: 100 μL of coating buffer (0.025M PBS pH 7.4) containing 200 ng/mL DOC-3-carboxymethyloxime-BSA (Steraloids. inc, Cat#3469-000) was added to each well of a 96-well plate and incubated overnight at 4° C. The next day, the plates were washed twice with 250 μl of wash solution (0.015M PBS pH 7.4 containing 0.05% Tween 20). After being washed, the wells were blocked with 250 μL blocking buffer (3% BSA in 0.025M PBS, pH 7.4) at 37° C. for 2 h. The plates were washed again 3 times as before, and then 90 μL of sample /standards (prepared in complete growth media) was added into the appropriate wells followed by 10 μL of antibody solution (1:450 rabbit anti-DOC in 0.6% BSA/PBS). The plates were incubated at room temperature for 2 h on a shaker. The contents of the wells were removed and the plate was washed 4 times. After the final wash, 100 μL of secondary antibody (1:12000 HRP-goat-anti-rabbit IgG conjugate 0.6% BSA/PBS) was added into each well. The plate was incubated at 30° C. for 45 min. The plate was washed again 4 times and 100 μL of TMB substrate solution was added to each well. The plate was incubated at room temperature for 10 min. 100 μL of stop solution was added to each well and the optical density was read at 450 nm.
The mean absorbance value for each sample was used to determine the corresponding concentration from the standard curve. Data was analyzed with “log(antagonist) vs response variable slope” under “non-linear regression analysis” using Prism5 software.

[4] = system: rat Cyp11B enzyme (rat adrenal mitochondria); test: CYP11B enzymatic assay (% inhibition at 100 nM) (Biological Example 9); format: biochemical; details: for Biological Example No. 9: CYP11B percent inhibition at 100 nM: 100 nM compound, cortisol by ELISA; for CYP11B enzymatic assay % inhibition at 100 nM (Biological Example No. 9): compound at 100 nM
Procedure: Adrenals excised from Sprague Dawley rats were homogenized, and mitochondria fraction were prepared by a series of centrifugation as described in Shuji Ohno, et al. J. of Steroid Biochemistry & Molecular Biology 2002, 80, 355-363. Prepared mitochondria protein was washed and resuspended in Buffer B (0.21 M mannitol, 70 mM sucrose, 5 mM MgCl2, 0.5 mM CaCl2, 20 mM Tris-HCl (pH 7.4) and 1 mM DTT, […]). The protein concentration was determined by BCA assay and stored as 10 μL aliquots at −80° C.
The rat Cyp11B enzyme assay was performed in 96-well plates. Typical assays were carried out in total 50 μL volume that included test compounds at 100 nM concentration, 1× Buffer B, 0.5 mM NADPH, 0.1 μM 11-deoxycortisol, and 2 μL of prepared rat adrenal mitochondria (added last). Reaction without test compound served as positive control and reaction without NADPH served as negative control. Reactions were allowed to incubate at 37° C. for 60 min with gentle shaking. The reaction was stopped by directly applying the enzymatic reaction mixture (1:5 diluted in ELISA assay buffer) to ELISA plate for evaluation of cortisol concentration according to manufacturer's protocol (Assay Design).
The mean absorbance value for each sample was used to determine the corresponding concentration from the standard curve. Amount of cortisol in the negative control (reaction that dis not include NADPH) was subtracted from total cortisol. Percent inhibition (inhibition %) of the compound was calculated using normalized cortisol concentration based on following formula: 100−([Cortisol] of compound/[Cortisol] of positive control *100).

[5] = target: T1, CYP17 (human testicular microsome); test: CYP17 enzymatic assay (% inhibition at 1 nM) (Biological Example 12); format: biochemical; details: compound at 1 nM, read-out: CYP17 enzymatic assay % inhibition at 1 nM (Biological Example No. 12)
[6] = DHEA by ELISA, read-out: Biological Example No. 4: CYP17 enzymatic assay IC50
[7] = 100 nM compound, read-out: Biological Example No. 10: CYP21-HEK293 percent inhibition at 100 nM
[8] = compound at 100 nM, read-out: CYP21-HEK293 enzymatic assay % inhibition at 100 nM (Biological Example No. 10)

inhibition at 0.01 µM [2] | inhibition at 0.1 µM [3, 7] | SMILES | IC50 [1, 6] | Biological Example No. 9: CYP11B percent inhibition at 100 nM [4] | inhibition at 0.001 µM [5] | IC50 ([1]; read-out: CYP17 enzymatic assay IC50 (Biological Example No. 4)) | inhibition at 0.1 µM [3, 8] | CYP11B enzymatic assay % inhibition at 100 nM (Biological Example No. 9) [4]
50 to 80% | < 30% | C[C@]12CC[C@H]3[C@@H](CCN4C(=O)CCCC[C@]34C)[C@@H]1CC=C2c1cccnc1 [Compound 38, (11aR,13aS)-11a,13a-dimethyl-1-(pyridin-3-yl)-3b,4,5,8,9,10,11,11a,11b,12,13,13a-dodecahydro-3H-azepino[2,1-a]cyclopenta[f]isoquinolin-7(3aH)-one] | < 0.011 µM | na (“na” means the compound was not active under the conditions tested) | – | – | – | –
1 to 50% | < 30% | C[C@]12CC[C@H]3[C@@H](CCN4CCCCC[C@]34C)[C@@H]1CC=C2c1cccnc1 [Compound 44, (11aR,13aS)-11a,13a-dimethyl-1-(pyridin-3-yl)-3a,3b,4,5,7,8,9,10,11,11a,11b,12,13,13a-tetradecahydro-3H-azepino[2,1-a]cyclopenta[f]isoquinoline] | – | na (“na” means the compound was not active under the conditions tested) | – | – | – | –
1 to 50% | < 30% | CN1CC=C2CC[C@@H]3[C@H](CC[C@]4(C)C(c5cccnc5)=CC[C@@H]34)[C@@]2(C)CC1 [Compound 147, (5aR,7aS)-2,5a,7a-trimethyl-8-(pyridin-3-yl)-2,3,4,5,5a,5b,6,7,7a,10,10a,10b,11,12-tetradecahydrocyclopenta[5,6]naphtho[2,1-c]azepine] | – | na (“na” means the compound was not active under the conditions tested) | – | – | – | –
1 to 50% | < 30% | CN1CC=C2CC[C@@H]3[C@H](CC[C@]4(C)C(n5ccnc5)=CC[C@@H]34)[C@@]2(C)CC1 [Compound 151] | – | T (T means the compound had a percent inhibition of less than 32% when tested at 100 nM) | – | – | – | –
– | < 30% | C[C@]12CCC(=O)NC=C1CCC1C2CC[C@]2(C)C(n3cnnn3)=CCC12 (stereo partly drawn) [Compound 156, (5aR,7aS)-5a,7a-dimethyl-8-(1H-tetrazol-1-yl)-4,5,5a,5b,6,7,7a,10,10a,10b,11,12-dodecahydrocyclopenta[5,6]naphtho[2,1-c]azepin-3(2H)-one] | – | U (U means the compound had a percent inhibition of greater than or equal to 32%) | – | – | – | –
– | – | COC(=O)NC1CC[C@@]2(C)C(=CCC3C2CC[C@]2(C)C(n4ccnc4)=CCC32)C1 (stereo partly drawn) [Compound 239, methyl ((10R,13S)-17-(1H-imidazol-1-yl)-10,13-dimethyl-2,3,4,7,8,9,10,11,12,13,14,15-dodecahydro-1H-cyclopenta[a]phenanthren-3-yl)carbamate] | – | – | > 50% | < 0.011 µM | < 30% | T (T means the compound had a percent inhibition of less than 32% when tested at 100 nM)
– | – | CC(=O)N[C@@H]1CC[C@@]2(C)C(=CC[C@H]3C4=CC=C(n5ccnc5)[C@@]4(C)CC[C@@H]32)C1 [Compound 245, N-((3R,10R,13S)-17-(1H-imidazol-1-yl)-10,13-dimethyl-2,3,4,7,8,9,10,11,12,13-decahydro-1H-cyclopenta[a]phenanthren-3-yl)acetamide] | – | – | 10 to 50% | – | < 30% | T (T means the compound had a percent inhibition of less than 32% when tested at 100 nM)
– | – | C[C@]12CC[C@H]3[C@@H](CC=C4C[C@H](NC(=O)C5CC5)CC[C@@]43C)C1=CC=C2n1ccnc1 [Compound 246, N-((3R,10R,13S)-17-(1H-imidazol-1-yl)-10,13-dimethyl-2,3,4,7,8,9,10,11,12,13-decahydro-1H-cyclopenta[a]phenanthren-3-yl)cyclopropanecarboxamide] | – | – | 10 to 50% | – | < 30% | U (U means the compound had a percent inhibition of greater than or equal to 32%)

SMILES | inhibition at 0.01 µM [2] | inhibition at 0.1 µM [3, 7] | IC50 [1, 6] | Biological Example No. 9: CYP11B percent inhibition at 100 nM [4] | inhibition at 0.001 µM [5] | IC50 ([1]; read-out: CYP17 enzymatic assay IC50 (Biological Example No. 4)) | inhibition at 0.1 µM [3, 8] | CYP11B enzymatic assay % inhibition at 100 nM (Biological Example No. 9) [4]
C[C@]12CCCCC1C(=O)C[C@@H]1[C@@H]2CC[C@]2(C)C(n3ccnc3)=CC[C@@H]12 (stereo partly drawn) [Compound 88, (10R,13S)-17-(1H-imidazol-1-yl)-10,13-dimethyl-2,3,4,5,7,8,9,11,12,13,14,15-dodecahydro-1H-cyclopenta[a]phenanthren-6(10H)-one] | > 80% | < 30% | < 0.011 µM | T (T means the compound had a percent inhibition of less than 32% when tested at 100 nM) | – | – | – | –
